Read-outs that look alike come from different tables or passages of the source.
How the values were obtained:
acid secretion = conditions: oral PG, cited from earlier work
gastric acid secretion [1] = assay: Gastric acid secretion after oral PG in pylorus-ligated rats; assay type: in vivo, Wistar Hanover rats; conditions: PG 50 μg P.O., vs saline
Method: (§1) Male and female Wistar Hanover rats, 7-10 weeks of age, were obtained from Harlan Laboratories (Rehovot, Israel). Animals were fed standard chow and received unlimited water supply. The animals were kept in automatically controlled temperature (between 20-24° C.), a 12-hour light/dark cycle, and 15 air changes an hour.
(§2) Rats were fasted (with water freely available) for 24 hours before experimentation. PG or saline were introduced into the stomach by means of a steel feeding needle. Thereafter, the animals were injected with Domitor and Ketaset; the abdominal wall was dissected and gastric fluid (approximately 30 μl) was collected by puncture with a needle (0.45×13 2006-09 Artsana S.P.A., Grandate (CO), Italy) at the indicated time points. Gastric juice was kept frozen at −80° C. until use. In some experiments, the rats were first anesthetized and dissected, after which test reagents were introduced by direct injection into the stomach. […]
(§3) Frozen gastric juice was defrosted at room temperature, mixed by vortexing, and centrifuged for 5 minutes at 14,000 RPM. […] The pH was measured, and NaOH (0.001 N) was added to the sample until pH 7 was reached, as determined by measuring pH using a pH meter (pH211, Hanna Instruments, 35030 Sameola di Rubano, Italy). […]

H. pylori = H. pylori growth with omeprazole, pentagastrin, amoxycillin and combinations, monitored spectrophotometrically; assay type: cell-based; conditions: single or triple-combined treatment; 18, 24, 46 hours; FIG. 3
Method: In an attempt to optimize the antibacterial formulation for eradication of H. pylori, the effect of pentagastrin and omeprazole provided in combination with amoxicillin was tested. Amoxicillin is a commonly accepted antibiotic used for H. pylori treatment. To investigate the effect of triple administration we tested the growth of bacteria in the presence of omeprazole, pentagastrin, amoxycillin, and their possible combinations was tested. Bacteria grown in the absence of any agent was used as a negative control. The level of bacterial growth was monitored spectrophotometrically after 18, 24, and 46 hours of treatment.

gastric mucosa = conditions: applied to the luminal surface, in vitro bullfrog model; cited from earlier work
gastric acid secretion [2] = assay: Gastric acid secretion after oral PG in fasted rats, no pylorus ligation; assay type: in vivo, Wistar Hanover rats; conditions: PG 50 μg P.O.
Method: as §1, §2, §3

[3] = system: H. pylori (H-88 clinical isolate); assay: H. pylori growth in liquid medium, CFU counts, 48 hours; assay type: cell-based; conditions: 48 hours incubation, FIG. 1A
[4] = Blood glucose levels in pylorus-ligated rats challenged with oral PG; assay type: in vivo; conditions: compared to controls, FIG. 6
Method: The observed effects of stimulation of gastric acid secretion may occur by different mechanisms. PG may be digested by gastric enzymes and the resulting free amino acids may stimulate acid secretion directly. Alternatively, the intact peptide may be actually absorbed from the gastric lumen and exert its effect on CCK-B receptors on the ECL and parietal cells. […] Since blood glucose levels reflect the activity of peripheral insulin, glucose levels were measured in the pylorus-ligated rats following the administration of PG or saline. These measurements served as a surrogate marker for PG-induced insulin release via activation of CCK-B receptors on the ECL and parietal cells. […] This observation supports the notion that the PG was absorbed intact and thereby could directly exert its effect on gastric tissue and stimulate secretion of gastric acid. […] B. Co-Administration of PG and Omeprazole

| Compound | effect on acid secretion (acid secretion; four normal subjects) | effect on acid secretion (acid secretion; three patients with gastrointestinal abnormalities) | gastric acid output (gastric acid secretion [1]; all time points, p<0.05, FIG. 5B) | gastric pH (gastric acid secretion [1]; p<0.05, FIG. 5A) | inhibition of bacterial growth (spectrophotometric) (H. pylori) | effect on gastric mucosa (gastric mucosa) | time of maximal effect on acid secretion after oral PG (gastric acid secretion [2]; p=0.05) [min] | secretion of acid into the gastric lumen (gastric acid secretion [2]; vs saline and S.C. PG, FIG. 4) | bacterial growth, CFU counts [3] | blood glucose levels [4] |
| --- | --- | --- | --- | --- | --- | --- | --- | --- | --- | --- |
| βAla-Trp-Met-Asp-PheNH2 [PG] | no effect | some effect | significantly increased | decreased | moderate inhibition | did not affect the gastric mucosa | 30 | significant secretion of acid | inhibited bacterial growth to an extent similar to that of omeprazole | decreased |
| CC1(C)S[C@@H]2[C@H](NC(=O)[C@H](N)c3ccc(O)cc3)C(=O)N2[C@H]1C(=O)O [amoxicillin] |  |  |  |  | moderate inhibition |  |  |  |  |  |
| caerulein |  |  |  |  |  |  |  |  | inhibited bacterial growth to an extent similar to that of omeprazole |  |
